Earlier results in patent publication US8076148B2, “Cytochrome c protein and assay” (GE Healthcare UK Limited, priority 2003, dated 2011).

Legend:
[1] = system: rat pheochromocytoma-6 (PC6) cells; conditions: PC6 cells expressing rat cytochrome c-GFP
caspase-9 = conditions: in vitro
Apaf-1 = molecular target: T1, Apaf-1 (Homo sapiens, UniProt O14727); conditions: in vitro
T1 sequence (O14727 1-1248): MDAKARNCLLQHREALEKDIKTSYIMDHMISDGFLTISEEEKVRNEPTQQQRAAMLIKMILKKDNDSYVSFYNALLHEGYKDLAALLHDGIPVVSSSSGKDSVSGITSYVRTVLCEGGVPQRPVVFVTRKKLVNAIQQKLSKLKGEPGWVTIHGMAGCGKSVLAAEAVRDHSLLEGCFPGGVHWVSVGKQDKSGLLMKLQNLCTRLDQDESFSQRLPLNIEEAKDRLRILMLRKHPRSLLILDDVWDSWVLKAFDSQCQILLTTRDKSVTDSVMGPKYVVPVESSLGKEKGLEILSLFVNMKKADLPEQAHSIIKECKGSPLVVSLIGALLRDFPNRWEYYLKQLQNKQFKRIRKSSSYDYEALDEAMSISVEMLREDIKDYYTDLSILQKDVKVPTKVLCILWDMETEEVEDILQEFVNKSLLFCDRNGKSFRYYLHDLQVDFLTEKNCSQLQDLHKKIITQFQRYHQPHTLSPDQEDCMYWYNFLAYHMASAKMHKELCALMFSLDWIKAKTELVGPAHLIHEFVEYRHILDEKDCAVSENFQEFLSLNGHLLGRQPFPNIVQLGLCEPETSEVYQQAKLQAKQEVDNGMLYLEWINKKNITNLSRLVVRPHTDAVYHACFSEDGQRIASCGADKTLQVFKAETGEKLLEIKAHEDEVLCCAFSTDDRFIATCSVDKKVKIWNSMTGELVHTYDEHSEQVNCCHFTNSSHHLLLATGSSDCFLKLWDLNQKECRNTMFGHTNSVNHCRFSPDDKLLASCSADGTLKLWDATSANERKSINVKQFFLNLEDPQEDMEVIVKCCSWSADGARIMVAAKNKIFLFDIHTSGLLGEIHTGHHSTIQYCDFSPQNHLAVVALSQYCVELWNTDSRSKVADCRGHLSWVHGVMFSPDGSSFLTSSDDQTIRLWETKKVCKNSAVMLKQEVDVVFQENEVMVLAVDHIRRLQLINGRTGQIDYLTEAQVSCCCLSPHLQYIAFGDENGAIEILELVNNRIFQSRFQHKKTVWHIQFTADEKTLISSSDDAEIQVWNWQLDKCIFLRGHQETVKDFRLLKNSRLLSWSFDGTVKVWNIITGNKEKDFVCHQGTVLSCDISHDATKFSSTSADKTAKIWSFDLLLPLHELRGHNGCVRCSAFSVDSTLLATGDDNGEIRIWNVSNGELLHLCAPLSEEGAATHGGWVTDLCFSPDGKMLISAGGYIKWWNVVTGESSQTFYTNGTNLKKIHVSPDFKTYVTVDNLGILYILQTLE

Compound	release of cytochrome c-GFP fusion from the mitochondria [1]	caspase activation (caspase-9)	binding to Apaf-1 (Apaf-1)
CN[C@@H]1C[C@H]2O[C@@](C)([C@@H]1OC)n1c3ccccc3c3c4c(c5c6ccccc6n2c5c31)C(=O)NC4 [staurosporine]	led to release of the fusion from the mitochondria	–	–
Horse cytochrome c: horse wild type cytochrome c, highly homologous to human cytochrome c	–	can initiate caspase activation	–
yeast cytochrome c: yeast wild type cytochrome c	–	nor activate caspase	did not measurably bind
K72A: cytochrome c mutant, lysine 72 to alanine, from the literature in vitro studies (Kluck et al.; Yu et al.)	–	no detectable binding or caspase-9 activation	no detectable binding
